The compounds below were run on HCI-025 (organoid from a breast cancer xenograft) (assay: CTG-3D luminescence at 96 h relative to day-0 seeding control (ratio to day 0); higher = more growth / less cytotoxicity; PDxO 3D drug screen, 96 h, CTG-3D normalised to day-0 seeding control.). Conditions: 0.005 µM; days in culture: 218.

First: CC(C)(C(=O)NCC(F)(F)C(F)(F)F)C(=O)N[C@@H]1C(=O)Nc2ccccc2-c2ccccc21
Second: C=CC(=O)N1CCC[C@@H](n2nc(-c3ccc(Oc4ccccc4)cc3)c3c(N)ncnc32)C1 [ibrutinib]
The “CTG-3D luminescence at 96 h” value of the first is higher: 1.95 for the first, 1.93 for the second.

Compared with `CNC(=O)c1cccc(-c2ccc3c(N4CCOC[C@@H]4C)nc(N4CCOC[C@@H]4C)nc3n2)c1` [vistusertib], `CCN(c1cc(C#CCN2CCOCC2)cc(C(=O)NCc2c(C)cc(C)[nH]c2=O)c1C)[C@H]1CC[C@H](N(C)CCOC)CC1` is lower in “CTG-3D luminescence at 96 h” value: 1.94 for the first, 1.76 for the second.

Same assay, conditions: 0.1 µM; days in culture: 172

First: CC(C)(C(=O)NCC(F)(F)C(F)(F)F)C(=O)N[C@@H]1C(=O)Nc2ccccc2-c2ccccc21
Second: C=CC(=O)N1CCC[C@@H](n2nc(-c3ccc(Oc4ccccc4)cc3)c3c(N)ncnc32)C1 [ibrutinib]
The “CTG-3D luminescence at 96 h” value of the first is higher: 2.44 for the first, 1.4 for the second.

First: CNC(=O)c1cccc(-c2ccc3c(N4CCOC[C@@H]4C)nc(N4CCOC[C@@H]4C)nc3n2)c1 [vistusertib]
Second: CCN(c1cc(C#CCN2CCOCC2)cc(C(=O)NCc2c(C)cc(C)[nH]c2=O)c1C)[C@H]1CC[C@H](N(C)CCOC)CC1
The “CTG-3D luminescence at 96 h” value of the first is lower: 0.95 for the first, 2.35 for the second.

Same assay, conditions: 0.1 µM; days in culture: 209

Going from `CC(C)(C(=O)NCC(F)(F)C(F)(F)F)C(=O)N[C@@H]1C(=O)Nc2ccccc2-c2ccccc21` to `C=CC(=O)N1CCC[C@@H](n2nc(-c3ccc(Oc4ccccc4)cc3)c3c(N)ncnc32)C1` [ibrutinib], the “CTG-3D luminescence at 96 h” value rises from 1.61 to 2.09.

Going from `CNC(=O)c1cccc(-c2ccc3c(N4CCOC[C@@H]4C)nc(N4CCOC[C@@H]4C)nc3n2)c1` [vistusertib] to `CCN(c1cc(C#CCN2CCOCC2)cc(C(=O)NCc2c(C)cc(C)[nH]c2=O)c1C)[C@H]1CC[C@H](N(C)CCOC)CC1`, the “CTG-3D luminescence at 96 h” value rises from 0.89 to 1.7.

Same assay, conditions: 0.1 µM; days in culture: 218

Going from `CC(C)(C(=O)NCC(F)(F)C(F)(F)F)C(=O)N[C@@H]1C(=O)Nc2ccccc2-c2ccccc21` to `C=CC(=O)N1CCC[C@@H](n2nc(-c3ccc(Oc4ccccc4)cc3)c3c(N)ncnc32)C1` [ibrutinib], the “CTG-3D luminescence at 96 h” value rises from 1.42 to 1.68.

Going from `CNC(=O)c1cccc(-c2ccc3c(N4CCOC[C@@H]4C)nc(N4CCOC[C@@H]4C)nc3n2)c1` [vistusertib] to `CCN(c1cc(C#CCN2CCOCC2)cc(C(=O)NCc2c(C)cc(C)[nH]c2=O)c1C)[C@H]1CC[C@H](N(C)CCOC)CC1`, the “CTG-3D luminescence at 96 h” value rises from 0.816 to 1.73.

Same assay, conditions: 1 µM; days in culture: 172

First: CC(C)(C(=O)NCC(F)(F)C(F)(F)F)C(=O)N[C@@H]1C(=O)Nc2ccccc2-c2ccccc21
Second: C=CC(=O)N1CCC[C@@H](n2nc(-c3ccc(Oc4ccccc4)cc3)c3c(N)ncnc32)C1 [ibrutinib]
The “CTG-3D luminescence at 96 h” value of the first is higher: 2.2 for the first, 1.8 for the second.

Compared with `CNC(=O)c1cccc(-c2ccc3c(N4CCOC[C@@H]4C)nc(N4CCOC[C@@H]4C)nc3n2)c1` [vistusertib], `CCN(c1cc(C#CCN2CCOCC2)cc(C(=O)NCc2c(C)cc(C)[nH]c2=O)c1C)[C@H]1CC[C@H](N(C)CCOC)CC1` is higher in “CTG-3D luminescence at 96 h” value: 0.649 for the first, 2.66 for the second.

Same assay, conditions: 1 µM; days in culture: 209

First: CC(C)(C(=O)NCC(F)(F)C(F)(F)F)C(=O)N[C@@H]1C(=O)Nc2ccccc2-c2ccccc21
Second: C=CC(=O)N1CCC[C@@H](n2nc(-c3ccc(Oc4ccccc4)cc3)c3c(N)ncnc32)C1 [ibrutinib]
The “CTG-3D luminescence at 96 h” value of the first is lower: 1.83 for the first, 1.86 for the second.

Compared with `CNC(=O)c1cccc(-c2ccc3c(N4CCOC[C@@H]4C)nc(N4CCOC[C@@H]4C)nc3n2)c1` [vistusertib], `CCN(c1cc(C#CCN2CCOCC2)cc(C(=O)NCc2c(C)cc(C)[nH]c2=O)c1C)[C@H]1CC[C@H](N(C)CCOC)CC1` is higher in “CTG-3D luminescence at 96 h” value: 0.395 for the first, 2.53 for the second.

Same assay, conditions: 1 µM; days in culture: 218

First: CC(C)(C(=O)NCC(F)(F)C(F)(F)F)C(=O)N[C@@H]1C(=O)Nc2ccccc2-c2ccccc21
Second: C=CC(=O)N1CCC[C@@H](n2nc(-c3ccc(Oc4ccccc4)cc3)c3c(N)ncnc32)C1 [ibrutinib]
The “CTG-3D luminescence at 96 h” value of the first is lower: 1.45 for the first, 1.57 for the second.

First: CNC(=O)c1cccc(-c2ccc3c(N4CCOC[C@@H]4C)nc(N4CCOC[C@@H]4C)nc3n2)c1 [vistusertib]
Second: CCN(c1cc(C#CCN2CCOCC2)cc(C(=O)NCc2c(C)cc(C)[nH]c2=O)c1C)[C@H]1CC[C@H](N(C)CCOC)CC1
The “CTG-3D luminescence at 96 h” value of the first is lower: 0.249 for the first, 1.43 for the second.

Same assay, conditions: 10 µM; days in culture: 172

Going from `CC(C)(C(=O)NCC(F)(F)C(F)(F)F)C(=O)N[C@@H]1C(=O)Nc2ccccc2-c2ccccc21` to `C=CC(=O)N1CCC[C@@H](n2nc(-c3ccc(Oc4ccccc4)cc3)c3c(N)ncnc32)C1` [ibrutinib], the “CTG-3D luminescence at 96 h” value falls from 2.06 to 0.991.

Compared with `CNC(=O)c1cccc(-c2ccc3c(N4CCOC[C@@H]4C)nc(N4CCOC[C@@H]4C)nc3n2)c1` [vistusertib], `CCN(c1cc(C#CCN2CCOCC2)cc(C(=O)NCc2c(C)cc(C)[nH]c2=O)c1C)[C@H]1CC[C@H](N(C)CCOC)CC1` is higher in “CTG-3D luminescence at 96 h” value: 0.279 for the first, 1.89 for the second.

Same assay, conditions: 10 µM; days in culture: 209

Going from `CC(C)(C(=O)NCC(F)(F)C(F)(F)F)C(=O)N[C@@H]1C(=O)Nc2ccccc2-c2ccccc21` to `C=CC(=O)N1CCC[C@@H](n2nc(-c3ccc(Oc4ccccc4)cc3)c3c(N)ncnc32)C1` [ibrutinib], the “CTG-3D luminescence at 96 h” value falls from 2.01 to 1.41.

Compared with `CNC(=O)c1cccc(-c2ccc3c(N4CCOC[C@@H]4C)nc(N4CCOC[C@@H]4C)nc3n2)c1` [vistusertib], `CCN(c1cc(C#CCN2CCOCC2)cc(C(=O)NCc2c(C)cc(C)[nH]c2=O)c1C)[C@H]1CC[C@H](N(C)CCOC)CC1` is higher in “CTG-3D luminescence at 96 h” value: 0.287 for the first, 1.47 for the second.

Same assay, conditions: 10 µM; days in culture: 218

Going from `CC(C)(C(=O)NCC(F)(F)C(F)(F)F)C(=O)N[C@@H]1C(=O)Nc2ccccc2-c2ccccc21` to `C=CC(=O)N1CCC[C@@H](n2nc(-c3ccc(Oc4ccccc4)cc3)c3c(N)ncnc32)C1` [ibrutinib], the “CTG-3D luminescence at 96 h” value falls from 2.15 to 1.75.

Compared with `CNC(=O)c1cccc(-c2ccc3c(N4CCOC[C@@H]4C)nc(N4CCOC[C@@H]4C)nc3n2)c1` [vistusertib], `CCN(c1cc(C#CCN2CCOCC2)cc(C(=O)NCc2c(C)cc(C)[nH]c2=O)c1C)[C@H]1CC[C@H](N(C)CCOC)CC1` is higher in “CTG-3D luminescence at 96 h” value: 0.373 for the first, 2.1 for the second.

Same assay, conditions: 100 µM; days in culture: 172

Compared with `CC(C)(C(=O)NCC(F)(F)C(F)(F)F)C(=O)N[C@@H]1C(=O)Nc2ccccc2-c2ccccc21`, `C=CC(=O)N1CCC[C@@H](n2nc(-c3ccc(Oc4ccccc4)cc3)c3c(N)ncnc32)C1` [ibrutinib] is lower in “CTG-3D luminescence at 96 h” value: 0.839 for the first, -0.0111 for the second.

Compared with `CNC(=O)c1cccc(-c2ccc3c(N4CCOC[C@@H]4C)nc(N4CCOC[C@@H]4C)nc3n2)c1` [vistusertib], `CCN(c1cc(C#CCN2CCOCC2)cc(C(=O)NCc2c(C)cc(C)[nH]c2=O)c1C)[C@H]1CC[C@H](N(C)CCOC)CC1` is higher in “CTG-3D luminescence at 96 h” value: 0.41 for the first, 2.28 for the second.

Same assay, conditions: 100 µM; days in culture: 209

Going from `CC(C)(C(=O)NCC(F)(F)C(F)(F)F)C(=O)N[C@@H]1C(=O)Nc2ccccc2-c2ccccc21` to `C=CC(=O)N1CCC[C@@H](n2nc(-c3ccc(Oc4ccccc4)cc3)c3c(N)ncnc32)C1` [ibrutinib], the “CTG-3D luminescence at 96 h” value falls from 0.831 to -0.0107.

Compared with `CNC(=O)c1cccc(-c2ccc3c(N4CCOC[C@@H]4C)nc(N4CCOC[C@@H]4C)nc3n2)c1` [vistusertib], `CCN(c1cc(C#CCN2CCOCC2)cc(C(=O)NCc2c(C)cc(C)[nH]c2=O)c1C)[C@H]1CC[C@H](N(C)CCOC)CC1` is higher in “CTG-3D luminescence at 96 h” value: 0.239 for the first, 1.54 for the second.

Same assay, conditions: 100 µM; days in culture: 218

Compared with `CC(C)(C(=O)NCC(F)(F)C(F)(F)F)C(=O)N[C@@H]1C(=O)Nc2ccccc2-c2ccccc21`, `C=CC(=O)N1CCC[C@@H](n2nc(-c3ccc(Oc4ccccc4)cc3)c3c(N)ncnc32)C1` [ibrutinib] is lower in “CTG-3D luminescence at 96 h” value: 1.22 for the first, -0.00991 for the second.

Compared with `CNC(=O)c1cccc(-c2ccc3c(N4CCOC[C@@H]4C)nc(N4CCOC[C@@H]4C)nc3n2)c1` [vistusertib], `CCN(c1cc(C#CCN2CCOCC2)cc(C(=O)NCc2c(C)cc(C)[nH]c2=O)c1C)[C@H]1CC[C@H](N(C)CCOC)CC1` is higher in “CTG-3D luminescence at 96 h” value: 0.201 for the first, 1.58 for the second.

Same assay, conditions: 625 fM; days in culture: 172

First: CC(C)(C(=O)NCC(F)(F)C(F)(F)F)C(=O)N[C@@H]1C(=O)Nc2ccccc2-c2ccccc21
Second: C=CC(=O)N1CCC[C@@H](n2nc(-c3ccc(Oc4ccccc4)cc3)c3c(N)ncnc32)C1 [ibrutinib]
The “CTG-3D luminescence at 96 h” value of the first is higher: 2.75 for the first, 2.37 for the second.

Compared with `CNC(=O)c1cccc(-c2ccc3c(N4CCOC[C@@H]4C)nc(N4CCOC[C@@H]4C)nc3n2)c1` [vistusertib], `CCN(c1cc(C#CCN2CCOCC2)cc(C(=O)NCc2c(C)cc(C)[nH]c2=O)c1C)[C@H]1CC[C@H](N(C)CCOC)CC1` is higher in “CTG-3D luminescence at 96 h” value: 2.26 for the first, 2.74 for the second.

Same assay, conditions: 625 fM; days in culture: 209

First: CC(C)(C(=O)NCC(F)(F)C(F)(F)F)C(=O)N[C@@H]1C(=O)Nc2ccccc2-c2ccccc21
Second: C=CC(=O)N1CCC[C@@H](n2nc(-c3ccc(Oc4ccccc4)cc3)c3c(N)ncnc32)C1 [ibrutinib]
The “CTG-3D luminescence at 96 h” value of the first is lower: 1.47 for the first, 1.71 for the second.

Going from `CNC(=O)c1cccc(-c2ccc3c(N4CCOC[C@@H]4C)nc(N4CCOC[C@@H]4C)nc3n2)c1` [vistusertib] to `CCN(c1cc(C#CCN2CCOCC2)cc(C(=O)NCc2c(C)cc(C)[nH]c2=O)c1C)[C@H]1CC[C@H](N(C)CCOC)CC1`, the “CTG-3D luminescence at 96 h” value rises from 2.1 to 2.18.

Same assay, conditions: 625 fM; days in culture: 218

Compared with `CC(C)(C(=O)NCC(F)(F)C(F)(F)F)C(=O)N[C@@H]1C(=O)Nc2ccccc2-c2ccccc21`, `C=CC(=O)N1CCC[C@@H](n2nc(-c3ccc(Oc4ccccc4)cc3)c3c(N)ncnc32)C1` [ibrutinib] is lower in “CTG-3D luminescence at 96 h” value: 2.19 for the first, 1.84 for the second.

Going from `CNC(=O)c1cccc(-c2ccc3c(N4CCOC[C@@H]4C)nc(N4CCOC[C@@H]4C)nc3n2)c1` [vistusertib] to `CCN(c1cc(C#CCN2CCOCC2)cc(C(=O)NCc2c(C)cc(C)[nH]c2=O)c1C)[C@H]1CC[C@H](N(C)CCOC)CC1`, the “CTG-3D luminescence at 96 h” value rises from 1.44 to 1.76.

— the supplement of paper PMC8882468
